# Test: Antioxidant assay by β-carotene-linoleate model system
# Assay type: biochemical
# Details: 100 ppm concentration; β-carotene bleaching, 90 min incubation at 50° C.
# Description: The antioxidant activity of curry leaves extract was evaluated by the β-carotene-linoleate model (Jayaprakasha and Jaganmohan Rao, Z. Naturforsch. 55C, 1018-1022, 2000). 0.2 mg of the β-carotene in 0.5 ml of chloroform, 20 mg of linoleic acid and 200 mg of Tween-40 (polyoxyethylene sorbitan monopalmitate) were mixed together. The chloroform was removed at 40° C. under vacuum using a rotary evaporator. The resulting solution was immediately diluted with 10 ml of triple-distilled water and the emulsion was mixed well for 1 min. The emulsion was further diluted with 40 ml of oxygenated water before use. 4 ml aliquots of this mixture were transferred into different tubes containing 0.2 ml of samples at 100 ppm concentrations in ethanol, butylated hydroxyanisole (BHA) was used for comparative purposes. A control containing 0.2 ml of ethanol and 4 ml of the above mixture was prepared. Optical density (OD) at 470 nm were taken for the all extracts and pure compounds immediately (t=0) at 15 min intervals for 1.5 h (t=90). […] The antioxidant activities (AA) of the samples were evaluated in terms of bleaching the β-carotene using the following formula. AA=100[1−(Ao−At)/(A^oo−A^ot)] where Ao and A^oo are the OD measured at zero time of incubation for test sample and control, respectively. At and A^ot are the OD measured in the test sample and control, respectively, after incubation for 90 min.
smiles,measurement,value
"COc1ccc(O)c(C(C)(C)C)c1 [BHA, butylated hydroxy anisole]",antioxidant activity,90.2%
